# Experimental data: US20100173780A1, “POLYPHENOL-CONTENT-[…] FOR PLANT” (COSMO OIL CO., LTD., priority 2006, published 2010)
# How the values were obtained:
# [1] = tested on: parsley; test: Amount of polyphenol in parsley after ALA treatment (HPLC); assay type: in vivo, parsley (Umbelliferae, genus parsley, race Paramount); conditions: 1 ppm
# Method: (§1) Two containers (length: 0.75 m, width 0.5 m) were provided and soil was placed in each of them. A Chemical fertilizer (nitrogen content:phosphorus content:potassium content=15:15:15 as mass ratio) was used as a base fertilizer and young plants of green pepper (Solanaceae, genus cayenne, race Miogi) were grown for two months according to a conventional method. Water was applied to the young plants once a day by means of a sprinkling can. Prior to one month from harvest, treatment was conducted once a week with 50 mL per container of each aqueous solution containing 0 ppm (control) or 1 ppm of 5-aminolevulinic acid hydrochloride to which a spreading agent, Approach BI (manufactured by Kao Corporation) had been added in a ratio of 0.1% by mass. After harvest, 3 g of green pepper was finely cut with scissors and a kitchen knife and then homogenized after addition of water. The homogenized one was diluted up to 6 mL with distilled water (stock solution) and the stock solution was divided into three even portions and used in the following extraction methods (1) to (3). (1) Three mL of ethyl acetate was added to 2 mL of the stock solution and the resultant one was centrifuged at 3000 rpm for 10 minutes. The supernatant was transferred to a spit tube and was evaporated to dryness with nitrogen gas while the tube was immersed in a warm bath at about 60° C. Thereto were added 200 μL of methanol and 100 μL of distilled water, thereby the volume being made 300 μL. (2) Two mL of methanol was added to 2 mL of the stock solution and the resultant one was centrifuged at 3000 rpm for 10 minutes. The supernatant was transferred to a spit tube and was evaporated to dryness with nitrogen gas while the tube was immersed in a warm bath at about 60° C. Thereto were added 200 μL of methanol and 100 μL of distilled water, thereby the volume being made 300 μL. (3) One mL of 0.1N hydrochloric acid was added to 2 mL of the stock solution and the resultant one was transferred to a plastic tube and kept in a drive-lock bath at 96.5° C. for 1 hour to effect hydrolysis. Five mL of ethyl acetate was added thereto and the resultant one was centrifuged at 3000 rpm for 10 minutes. The supernatant was transferred to a spit tube and was evaporated to dryness with nitrogen gas while the tube was immersed in a warm bath at about 60° C. Thereto were added 200 μL of methanol and 100 μL of distilled water, thereby the volume being made 300 μL. The samples from (1) to (3) were measured by high-performance liquid chromatography (HPLC) (analytical conditions: the measurement was performed at a flow rate of 1.0 mL/min at a column temperature of 40° C. using a wavelength of 350 nm, using Liquid A (80% by volume of methanol/5% by volume of acetic acid) or Liquid B (10% by volume of methanol/5% by volume of acetic acid) as an eluent, and using a column of Hichrom5C18, T898, 4.6 mm×[…] (manufactured by LLOYD′S REGISTER QUALITY COMPANY) and each concentration was calculated based on standard solutions. In Table 1, the most highly extracted value was cited among the results measured with each of the extraction methods (1) to (3). Moreover, the sum of individual concentration of polyphenol used in this time was regarded as the total amount of polyphenol.
# (§2) Two containers (length: 0.75 m, width 0.5 m) were provided and soil was placed in each of them. A Chemical fertilizer (nitrogen content:phosphorus content:potassium content=15:15:15 as mass ratio) was used as a base fertilizer and seeds of parsley (Umbelliferae, genus parsley, race Paramount) were planted according to a conventional method and water was applied once a day by means of a sprinkling can. Prior to one month from harvest, treatment was conducted once a week with 50 mL per container of each aqueous solution containing 0 ppm (control) or 1 ppm of 5-aminolevulinic acid hydrochloride. After harvest, the content of polyphenol was analyzed in the same manner as in Example 1.
# [2] = tested on: tea; test: Amount of polyphenol in tealeaf after ALA treatment (HPLC); assay type: in vivo, tea (Camelliaceae, genus camellia, race Yabukita); conditions: 3 ppm
# Method: as §1
# (§3) Prior to 210 days from harvest, treatment to tea (Camelliaceae, genus camellia, race Yabukita) grown in a production farm field was conducted once a month with a spraying amount of 100 L/tan of each aqueous solution containing 0 ppm (control) or 3 ppm of 5-aminolevulinic acid hydrochloride. After harvest, the content of polyphenol was analyzed by HPLC in the same manner as in Example 1.
# [3] = tested on: pear; test: Amount of polyphenol in pear after ALA treatment (HPLC); assay type: in vivo, pear (Rosaceae, genus pear, race Kosui); conditions: 3 ppm
# Method: as §1
# Prior to 150 days from harvest, treatment to pear
# ([…], genus pear, race Kosui) grown in a production farm field was conducted once a fortnight with a spraying amount of 300 L/tan of each aqueous solution containing 0 ppm (control) or 3 ppm of 5-aminolevulinic acid hydrochloride to which a spreading agent, Approach BI (manufactured by Kao Corporation) had been added in a ratio of 0.1% by mass. After harvest, the content of polyphenol was analyzed by HPLC in the same manner as in Example 1.
# [4] = tested on: asparagus; test: Amount of polyphenol in asparagus after ALA treatment (HPLC); assay type: in vivo, asparagus (Liliaceae, genus asparagus, race Welcome); conditions: 3 ppm
# Method: as §1
# Prior to 150 days from harvest, treatment to tetraennial-root asparagus (Liliaceae, genus asparagus, race Welcome) grown in a vertical stem form in a greenhouse was conducted once a fortnight with a spraying amount of 100 L/tan of each solution containing 0 ppm (control) or 3 ppm of 5-aminolevulinic acid hydrochloride. After harvest, the content of polyphenol was analyzed in the same manner as in Example 1.
# [5] = tested on: green soybean; test: Amount of polyphenol in green soybean after ALA treatment (HPLC); assay type: in vivo, green soybean (Lagminosae, genus soybean, race Hakusan); conditions: 1 ppm, 100 L/tan once a fortnight after flowering
# Method: as §1
# as §3, with “green soybean (Lagminosae,” for “tea (Camelliaceae,”, “soybean,” for “camellia,”, “Hakusan)” for “Yabukita)”, “fortnight after flowering” for “month”, “1” for “3”
# [6] = tested on: green pepper; test: Amount of polyphenol in green pepper after ALA treatment (HPLC); assay type: in vivo, green pepper (Solanaceae, genus cayenne, race Miogi)
# Method: as §1
# [7] = tested on: pepper; test: Amount of polyphenol in pepper after ALA treatment (HPLC); assay type: in vivo, pepper (Solanaceae, genus cayenne; conditions: pepper (race Habanero), 1 ppm
# Method: as §1
# as §2, with “young plants” for “seeds”, “pepper (Solanaceae,” for “parsley (Umbelliferae,”, “cayenne,” for “parsley,”, “Habanero)” for “Paramount)”
# [8] = 50 mL per container once a week from one month before harvest, HPLC
# [9] = 50 mL per container once a week from one month before harvest, sum of the individual polyphenols
# [10] = 50 mL per container once a week, versus 0 ppm control
# [11] = 100 L/tan once a month from 210 days before harvest, HPLC
# [12] = 300 L/tan once a fortnight from 150 days before harvest, HPLC
# [13] = greenhouse, 100 L/tan once a fortnight from 150 days before harvest, HPLC
# [14] = 1 ppm, 50 mL per container once a week from one month before harvest, HPLC, highest of extraction methods (1)-(3)
smiles,measurement,setting,value
"Cl.NCC(=O)CCC(=O)O [ALA, 5-aminolevulinic acid hydrochloride]",Apigenin amount in parsley,[1]; [8],1099 ng/g
same,Caffeic acid amount in parsley,[1]; [8],4240 ng/g
same,Chlorogenic acid amount in parsley,[1]; [8],20820 ng/g
same,Ferulic acid amount in parsley,[1]; [8],0 ng/g
same,Hesperetin amount in parsley,[1]; [8],110685 ng/g
same,Isorhamnetin amount in parsley,[1]; [8],4388 ng/g
same,Kaempferol amount in parsley,[1]; [8],10321 ng/g
same,Luteolin amount in parsley,[1]; [8],2733 ng/g
same,Quercetin amount in parsley,[1]; [8],37699 ng/g
same,Rutin amount in parsley,[1]; [8],28977 ng/g
same,Total amount of polyphenol in parsley,[1]; [9],220962 ng/g
same,ALA/control ratio of total amount of polyphenol in parsley,[1]; [10],3.5
same,Apigenin amount in tealeaf,[2]; [11],915 ng/g
same,Caffeic acid amount in tealeaf,[2]; [11],0 ng/g
same,Chlorogenic acid amount in tealeaf,[2]; [11],3474 ng/g
same,Ferulic acid amount in tealeaf,[2]; [11],17172 ng/g
same,Hesperetin amount in tealeaf,[2]; [11],25887 ng/g
same,Isorhamnetin amount in tealeaf,[2]; [11],3881 ng/g
same,Kaempferol amount in tealeaf,[2]; [11],970 ng/g
same,Luteolin amount in tealeaf,[2]; [11],2181 ng/g
same,Quercetin amount in tealeaf,[2]; [11],8249 ng/g
same,Rutin amount in tealeaf,[2]; [11],4519 ng/g
same,Total amount of polyphenol in tealeaf,"[2]; 100 L/tan once a month from 210 days before harvest, sum of the individual polyphenols",67248 ng/g
same,ALA/control ratio of total amount of polyphenol in tealeaf,"[2]; 100 L/tan once a month, versus 0 ppm control",1.1
same,Apigenin amount in pear,[3]; [12],95 ng/g
same,Caffeic acid amount in pear,[3]; [12],8400 ng/g
same,Chlorogenic acid amount in pear,[3]; [12],1819 ng/g
same,Ferulic acid amount in pear,[3]; [12],12456 ng/g
same,Hesperetin amount in pear,[3]; [12],81 ng/g
same,Isorhamnetin amount in pear,[3]; [12],567 ng/g
same,Kaempferol amount in pear,[3]; [12],18 ng/g
same,Luteolin amount in pear,[3]; [12],61 ng/g
same,Quercetin amount in pear,[3]; [12],111 ng/g
same,Rutin amount in pear,[3]; [12],1595 ng/g
same,Total amount of polyphenol in pear,"[3]; 300 L/tan once a fortnight from 150 days before harvest, sum of the individual polyphenols",25202 ng/g
same,ALA/control ratio of total amount of polyphenol in pear,"[3]; 300 L/tan once a fortnight, versus 0 ppm control",2.3
same,ALA/control ratio of total amount of polyphenol in asparagus,"[4]; 100 L/tan once a fortnight, versus 0 ppm control",2.3
same,Apigenin amount in asparagus,[4]; [13],456 ng/g
same,Caffeic acid amount in asparagus,[4]; [13],0 ng/g
same,Chlorogenic acid amount in asparagus,[4]; [13],2983 ng/g
same,Ferulic acid amount in asparagus,[4]; [13],9899 ng/g
same,Hesperetin amount in asparagus,[4]; [13],20198 ng/g
same,Isorhamnetin amount in asparagus,[4]; [13],1022 ng/g
same,Kaempferol amount in asparagus,[4]; [13],723 ng/g
same,Luteolin amount in asparagus,[4]; [13],1923 ng/g
same,Quercetin amount in asparagus,[4]; [13],5533 ng/g
same,Rutin amount in asparagus,[4]; [13],40234 ng/g
same,Total amount of polyphenol in asparagus,"[4]; greenhouse, 100 L/tan once a fortnight from 150 days before harvest, sum of the individual polyphenols",82971 ng/g
same,Apigenin amount in green soybean,[5]; HPLC,11 ng/g
same,Caffeic acid amount in green soybean,[5]; HPLC,0 ng/g
same,Chlorogenic acid amount in green soybean,[5]; HPLC,17 ng/g
same,Ferulic acid amount in green soybean,[5]; HPLC,3963 ng/g
same,Hesperetin amount in green soybean,[5]; HPLC,1841 ng/g
same,Isorhamnetin amount in green soybean,[5]; HPLC,0 ng/g
same,Kaempferol amount in green soybean,[5]; HPLC,0 ng/g
same,Luteolin amount in green soybean,[5]; HPLC,19 ng/g
same,Quercetin amount in green soybean,[5]; HPLC,261 ng/g
same,Rutin amount in green soybean,[5]; HPLC,1032 ng/g
same,Total amount of polyphenol in green soybean,[5]; sum of the individual polyphenols,7143 ng/g
same,ALA/control ratio of total amount of polyphenol in green soybean,[5]; versus 0 ppm control,1.4
same,Total amount of polyphenol in green pepper,"[6]; 1 ppm once a week from one month before harvest, sum of the individual polyphenol concentrations",48824 ng/g
same,ALA/control ratio of total amount of polyphenol in green pepper,"[6]; 1 ppm once a week from one month before harvest, versus 0 ppm control",9.4
same,Apigenin amount in green pepper,[6]; [14],0 ng/g
same,Caffeic acid amount in green pepper,[6]; [14],276 ng/g
same,Chlorogenic acid amount in green pepper,[6]; [14],4856 ng/g
same,Ferulic acid amount in green pepper,[6]; [14],5680 ng/g
same,Hesperetin amount in green pepper,[6]; [14],236 ng/g
same,Isorhamnetin amount in green pepper,[6]; [14],1849 ng/g
same,Kaempferol amount in green pepper,[6]; [14],668 ng/g
same,Luteolin amount in green pepper,[6]; [14],644 ng/g
same,Quercetin amount in green pepper,[6]; [14],28919 ng/g
same,Rutin amount in green pepper,[6]; [14],5696 ng/g
same,Apigenin amount in pepper,[7]; [8],2570 ng/g
same,Caffeic acid amount in pepper,[7]; [8],5520 ng/g
same,Chlorogenic acid amount in pepper,[7]; [8],18020 ng/g
same,Ferulic acid amount in pepper,[7]; [8],9270 ng/g
same,Hesperetin amount in pepper,[7]; [8],0 ng/g
same,Isorhamnetin amount in pepper,[7]; [8],270 ng/g
same,Kaempferol amount in pepper,[7]; [8],0 ng/g
same,Luteolin amount in pepper,[7]; [8],62060 ng/g
same,Quercetin amount in pepper,[7]; [8],26700 ng/g
same,Rutin amount in pepper,[7]; [8],457080 ng/g
same,Total amount of polyphenol in pepper,[7]; [9],581490 ng/g
same,ALA/control ratio of total amount of polyphenol in pepper,[7]; [10],1.4
